Reference: the NIST ThermoML archive (doi:10.1021/acs.jced.8b00132)
Several values for one entry are separate records, joined by “and”; a condition that tells them apart may be missing. Equal values may be shown once.

O=C(C(F)(F)C(F)(F)F)C(F)(C(F)(F)F)C(F)(F)F [dodecafluoro-2-methylpentan-3-one]
Settings	thermal conductivity
300.81 K, 35 kPa, Gas, hot wire	0.0117 W/m/K and 0.01167 W/m/K
300.82 K, 27 kPa, Gas, hot wire	0.01167 W/m/K
301.02 K, 35 kPa, Gas, hot wire	0.01175 W/m/K and 0.01169 W/m/K
301.02 K, 40 kPa, Gas, hot wire	0.01176 W/m/K and 0.01171 W/m/K
301.04 K, 26 kPa, Gas, hot wire	0.01169 W/m/K
301.04 K, 27 kPa, Gas, hot wire	0.01166 W/m/K
301.12 K, 68548 kPa, Liquid, transient hot wire	0.07848 W/m/K
301.12 K, 68619 kPa, Liquid, transient hot wire	0.07853 W/m/K
301.16 K, 59412 kPa, Liquid, transient hot wire	0.07633 W/m/K
301.16 K, 59421 kPa, Liquid, transient hot wire	0.07635 W/m/K
301.2 K, 15856 kPa, Liquid, transient hot wire	0.06469 W/m/K
301.2 K, 15861 kPa, Liquid, transient hot wire	0.06419 W/m/K
301.2 K, 48052 kPa, Liquid, transient hot wire	0.07348 W/m/K
301.21 K, 48059 kPa, Liquid, transient hot wire	0.07348 W/m/K
301.23 K, 38563 kPa, Liquid, transient hot wire	0.07045 W/m/K
301.23 K, 38570 kPa, Liquid, transient hot wire	0.07088 W/m/K
301.25 K, 35 kPa, Gas, hot wire	0.01177 W/m/K and 0.01172 W/m/K
301.25 K, 40 kPa, Gas, hot wire	0.01175 W/m/K and 0.01177 W/m/K
301.26 K, 29951 kPa, Liquid, transient hot wire	0.06831 W/m/K
301.26 K, 29959 kPa, Liquid, transient hot wire	0.06831 W/m/K
301.27 K, 26 kPa, Gas, hot wire	0.0117 W/m/K
301.27 K, 27 kPa, Gas, hot wire	0.01169 W/m/K
301.27 K, 22365 kPa, Liquid, transient hot wire	0.06588 W/m/K
301.27 K, 22366 kPa, Liquid, transient hot wire	0.06588 W/m/K
301.29 K, 68411 kPa, Liquid, transient hot wire	0.07844 W/m/K
301.3 K, 68477 kPa, Liquid, transient hot wire	0.07847 W/m/K
301.31 K, 15646 kPa, Liquid, transient hot wire	0.06353 W/m/K
301.32 K, 15647 kPa, Liquid, transient hot wire	0.06353 W/m/K
301.32 K, 15982 kPa, Liquid, transient hot wire	0.06426 W/m/K
301.32 K, 68614 kPa, Liquid, transient hot wire	0.07896 W/m/K
301.33 K, 15978 kPa, Liquid, transient hot wire	0.06437 W/m/K
301.33 K, 58469 kPa, Liquid, transient hot wire	0.07677 W/m/K
301.33 K, 68621 kPa, Liquid, transient hot wire	0.07913 W/m/K
301.34 K, 29983 kPa, Liquid, transient hot wire	0.06887 W/m/K
301.34 K, 38644 kPa, Liquid, transient hot wire	0.07116 W/m/K
301.34 K, 38645 kPa, Liquid, transient hot wire	0.07082 W/m/K
301.34 K, 48192 kPa, Liquid, transient hot wire	0.07381 W/m/K
301.34 K, 48193 kPa, Liquid, transient hot wire	0.07385 W/m/K
301.34 K, 58483 kPa, Liquid, transient hot wire	0.07689 W/m/K
301.35 K, 9734 kPa, Liquid, transient hot wire	0.06181 W/m/K
301.35 K, 9737 kPa, Liquid, transient hot wire	0.06163 W/m/K
301.35 K, 29988 kPa, Liquid, transient hot wire	0.06876 W/m/K
301.35 K, 59394 kPa, Liquid, transient hot wire	0.07632 W/m/K
301.35 K, 59405 kPa, Liquid, transient hot wire	0.07636 W/m/K
301.36 K, 186 kPa, Liquid, transient hot wire	0.05707 W/m/K
301.36 K, 22446 kPa, Liquid, transient hot wire	0.0654 W/m/K
301.37 K, 186 kPa, Liquid, transient hot wire	0.05699 W/m/K
301.37 K, 4437 kPa, Liquid, transient hot wire	0.05962 W/m/K
301.37 K, 4442 kPa, Liquid, transient hot wire	0.05915 W/m/K
301.37 K, 22450 kPa, Liquid, transient hot wire	0.06542 W/m/K
301.38 K, 9940 kPa, Liquid, transient hot wire	0.06178 W/m/K
301.39 K, 94 kPa, Liquid, transient hot wire	0.05683 W/m/K
301.39 K, 100 kPa, Liquid, transient hot wire	0.05659 W/m/K
301.39 K, 9943 kPa, Liquid, transient hot wire	0.06137 W/m/K
301.39 K, 68810 kPa, Liquid, transient hot wire	0.07913 W/m/K
301.39 K, 68825 kPa, Liquid, transient hot wire	0.07893 W/m/K
301.4 K, 48039 kPa, Liquid, transient hot wire	0.0735 W/m/K
301.4 K, 48041 kPa, Liquid, transient hot wire	0.07342 W/m/K
301.41 K, 182 kPa, Liquid, transient hot wire	0.057 W/m/K
301.42 K, 181 kPa, Liquid, transient hot wire	0.05699 W/m/K
301.43 K, 4512 kPa, Liquid, transient hot wire	0.0591 W/m/K
301.43 K, 4517 kPa, Liquid, transient hot wire	0.05911 W/m/K
301.43 K, 38558 kPa, Liquid, transient hot wire	0.0709 W/m/K
301.44 K, 38562 kPa, Liquid, transient hot wire	0.07087 W/m/K
301.46 K, 29951 kPa, Liquid, transient hot wire	0.06828 W/m/K
301.47 K, 29958 kPa, Liquid, transient hot wire	0.0683 W/m/K
301.48 K, 22365 kPa, Liquid, transient hot wire	0.06549 W/m/K
301.49 K, 22364 kPa, Liquid, transient hot wire	0.06585 W/m/K
301.49 K, 68338 kPa, Liquid, transient hot wire	0.07849 W/m/K
301.5 K, 35 kPa, Gas, hot wire	0.01174 W/m/K
301.5 K, 40 kPa, Gas, hot wire	0.01178 W/m/K
301.5 K, 41 kPa, Gas, hot wire	0.01177 W/m/K
301.5 K, 68274 kPa, Liquid, transient hot wire	0.07839 W/m/K
301.51 K, 35 kPa, Gas, hot wire	0.01178 W/m/K
301.52 K, 27 kPa, Gas, hot wire	0.01171 W/m/K
301.53 K, 27 kPa, Gas, hot wire	0.0117 W/m/K
301.54 K, 121 kPa, Liquid, transient hot wire	0.05731 W/m/K and 0.05707 W/m/K
301.54 K, 15641 kPa, Liquid, transient hot wire	0.06381 W/m/K
301.54 K, 15643 kPa, Liquid, transient hot wire	0.06352 W/m/K
301.54 K, 59383 kPa, Liquid, transient hot wire	0.07629 W/m/K
301.54 K, 59392 kPa, Liquid, transient hot wire	0.07615 W/m/K
301.56 K, 34 kPa, Gas, transient hot wire	0.01199 W/m/K
301.57 K, 34 kPa, Gas, transient hot wire	0.01211 W/m/K
301.59 K, 15866 kPa, Liquid, transient hot wire	0.06262 W/m/K
